Experimental data taken from patent US8114903B2, “Cytokine modulators using cyclic glycerides of essential polyunsaturated fatty acids” (BTG International Limited, priority 2005, dated 2012).
Like-named read-outs stand apart in the source and are kept apart here.

What was measured:
[1] = tested on: TGF-β1; test: TGF-β1 production by spleen mononuclear cells of C57/BL mice dosed orally with 2 GLA MG formal (ELISA); assay type: in vivo; conditions: for Spleen mononuclear cell TGFβ production: Con A and unstimulated data combined, n=9/group, mean ± SEM
Protocol: C57/BL mice were dosed orally with 2 GLA MG formal at two doses of 50 and 150 ul for eight days. The compound was supplied in 8 separate tubes to be stored at 4° C. prior to dosing but warmed to 25° C. before use.
Data were therefore combined for the purposes of statistical analysis (n=9/group). Data were analysed using Graphpad Instat.

[2] = Storage stability in air at room temperature; assay type: physicochemical; conditions: similar to GLA, best stored long term in a cool place under nitrogen
Protocol: For the purposes of this exemplification, the synthesis of this ester was carried out by acylation of the commercially available glycerol formal mixture using γ-linolenoyl chloride. By this method a mixture of two products is formed and these were separable by column chromatography. The undesired by-product is eluted off the column first; further elution gives the desired acetal-ester.

[3] = tested on: TGF-β1; conditions: monoglyceride 50 μg
Protocol: Solublization of Sn-2 monoglyceride was performed using ethyl alcohol or DMSO for in vitro work on human peripheral blood mononuclear cells (PBMCs). […] SJL mice were fed sn-2 GLA of Example 1 at three doses (50, 125 and 250 μl) for seven days by gavage. […] After seven days animals were killed and the brain, liver and spleen were removed the liver and brain frozen at −70° C. and mononuclear cells were isolated from spleens by sieving and density centrifugation on Lymphoprep (Sigma Chemical Co) and cultured at 37° C. in 5% CO2 atmosphere in 5 ml culture tubesat a cell density of 1×10^6 cells/ml in RPMI 1640 medium in 5% foetal calf serum (FCS). Cells were cultured with and without 1 μg/ml or […] concanavalin A (Con A) for approximately 20 hours and the supernatants removed and stored at −70° C. until required. Mouse […] was measured in supernatants using a commercially available ELISA (Promega, Madison Wis.).

[4] = mouse, in vivo

Structure (SMILES)	Spleen mononuclear cell TGFβ production ([1]; 50 ul orally for eight days) [pg/mL]	Increase of spleen mononuclear cell TGFβ production vs controls ([1]; 150 ul orally for eight days)	Spleen mononuclear cell TGFβ production ([1]; 150 ul orally for eight days) [pg/mL]	Stability in air [2]	Change % of TGF-β1 production vs control ([3]; Con A 0 μg/ml) [%]	TGF-β1 production from spleen PBMCs, unstimulated ([3]; Con A 0 μg/ml, fed by gavage for seven days, cells cultured about 20 hours) [pg/mL]	Change % of TGF-β1 production vs control ([3]; Con A 1 μg/ml) [%]	TGF-β1 production from spleen PBMCs, stimulated (Con A) ([3]; Con A 1 μg/ml, fed by gavage for seven days, cells cultured about 20 hours) [pg/mL]	Change % of TGF-β1 production vs control ([3]; Con A 25 μg/ml) [%]	TGF-β1 production from spleen PBMCs, stimulated (Con A) ([3]; Con A 25 μg/ml, fed by gavage for seven days, cells cultured about 20 hours) [pg/mL]	Regurgitation after gavage [4]
CCCCC/C=C\C/C=C\C/C=C\CCCCC(=O)OC1COCOC1 [GLA 2-MG-F, 5-(γ-linolenoyloxy)-1,3-dioxan]	90.9 ± 5.2	P < 0.0001 ↑ 103%	158.6 ± 7.5	stable in air at room temperature for short periods (days)	–	–	–	–	–	–	–
CCCCC/C=C\C/C=C\C/C=C\CCCCC(=O)OC(CO)CO [γ-linolenic acid monoglyceride]	–	–	–	–	80	377	79	409	42	480	prone to regurgitation
